US9573953B2, “Heteroaromatic compounds as PI3 kinase modulators and methods of use” (CALITOR SCIENCES, LLC, priority 2013, dated 2017)
Where two headings read alike, the source gives them in different places.

Experiments:
[1] = Pharmacokinetic profiles in rats; type: in vivo; settings: for F: oral dose generally 5 or 10 mg/kg; for Cl/F / AUC(0-t) / half-life / Vd: iv dosing; for AUC(0-t) / half-life / Vd: rat, plasma; for Vd: read-out: Vss
Description: The compounds disclosed herein are assessed in pharmacokinetic studies in mice, rats, dogs or monkeys. The compounds are administered as a water solution, 2% HPMC+1% TWEEN®80 in water solution, 5% DMSO+5% solutol in saline, 4% MC suspension or capsule. For the intravenous administration, the animals are generally given at 1 or 2 mg/kg dose. For the oral (p.o.) dosing, mice and rats are generally given 5 or 10 mg/kg dose, and dogs and monkeys are generally given 10 mg/kg dose. The blood samples (0.3 mL) are drawn at 0.25, 0.5, 1.0, 2.0, 3.0, 4.0, 6.0, 8.0, 12 and 24 h time points or 0.083, 0.25, 0.5, 1.0, 2.0, 4.0, 6.0, 8.0 and 24 h time points and centrifuged at 3,000 or 4000 rpm for 2 to 10 min. The plasma solutions are collected and stored at −20° C. or −70° C. until analyzed by LC/MS/MS as described above.

[2] = Compound stability in human liver microsomes; type: in vitro ADME; settings: for half-life at 5 μM / CLint scaled at 5 μM: pH 7.4; for CLint scaled at 5 μM: human liver microsomes, in vivo CLint extrapolated
Description: (§1) Human or rat liver microsomes incubations were conducted in duplicate in polypropylene tubes. The typical incubation mixtures consisted of human or rat liver microsomes (0.5 mg protein/mL), compounds of interest (5 μM) and NADPH (1.0 mM) in a total volume of 200 μL potassium phosphate buffer (PBS, 100 mM, pH=7.4). Compounds were dissolved in DMSO and diluted with PBS such that the final concentration of DMSO was 0.05%. The enzymatic reactions were commenced with the addition of protein after a 3-min preincubation and incubated in a water bath open to the air at 37° C. Reactions were terminated at various time points (0, 5, 10, 15, 30, 60 min) by adding equal volume of ice-cold acetonitrile. The samples were stored at −80° C. until LC/MS/MS assays.
(§2) The concentrations of compounds in the incubation mixtures of human or rat liver microsomes were determined by a LC/MS/MS method. The ranges of the linearity in the concentration range were determined for each tested compounds.
(§3) A parallel incubation was performed using denatured microsomes as the negative control, and reactions were terminated at various time points (0, 15, 60 min) after incubation at 37° C.
(§4) Dextromethorphan (70 μM) was selected as the positive control, and reactions were terminated at various time points (0, 5, 10, 15, 30, 60 min) after incubation at 37° C. Both positive and negative control samples were included in each assay to ensure the integrity of the microsomal incubation system.
(§5) The concentrations of compounds in human or rat liver microsome incubations were plotted as a percentage of the relevant zero time point control for each reaction. The in vivo CLint were extrapolated (ref.: Naritomi Y, Terashita S, Kimura S, Suzuki A, Kagayama A, Sugiyama Y. “Prediction of human hepatic clearance from in vivo animal experiments and in vitro metabolic studies with liver microsomes from animals and humans”, Drug Metabolism and Disposition, 2001, 29, 1316-1324).

[3] = Compound stability in rat liver microsomes; type: in vitro ADME; settings: for T1/2 / half-life at 5 μM: rat liver microsomes 0.5 mg protein/mL, compound 5 μM, NADPH, 37° C.; for half-life at 5 μM / CLint scaled at 5 μM: pH 7.4; for CLint scaled at 5 μM: rat liver microsomes, in vivo CLint extrapolated
Description: as §1, §2, §3, §4, §5

PI3K (p120γ) (h) = molecular target: T1, PI3K (p120γ) (h) (Homo sapiens, UniProt P48736); test: PI3K (p120γ) (h) non-radioactive (HTRF) assay; type: biochemical
T1 construct: purchased Millipore UK Ltd (assays run there as a service)
T1 sequence (P48736 whole entry): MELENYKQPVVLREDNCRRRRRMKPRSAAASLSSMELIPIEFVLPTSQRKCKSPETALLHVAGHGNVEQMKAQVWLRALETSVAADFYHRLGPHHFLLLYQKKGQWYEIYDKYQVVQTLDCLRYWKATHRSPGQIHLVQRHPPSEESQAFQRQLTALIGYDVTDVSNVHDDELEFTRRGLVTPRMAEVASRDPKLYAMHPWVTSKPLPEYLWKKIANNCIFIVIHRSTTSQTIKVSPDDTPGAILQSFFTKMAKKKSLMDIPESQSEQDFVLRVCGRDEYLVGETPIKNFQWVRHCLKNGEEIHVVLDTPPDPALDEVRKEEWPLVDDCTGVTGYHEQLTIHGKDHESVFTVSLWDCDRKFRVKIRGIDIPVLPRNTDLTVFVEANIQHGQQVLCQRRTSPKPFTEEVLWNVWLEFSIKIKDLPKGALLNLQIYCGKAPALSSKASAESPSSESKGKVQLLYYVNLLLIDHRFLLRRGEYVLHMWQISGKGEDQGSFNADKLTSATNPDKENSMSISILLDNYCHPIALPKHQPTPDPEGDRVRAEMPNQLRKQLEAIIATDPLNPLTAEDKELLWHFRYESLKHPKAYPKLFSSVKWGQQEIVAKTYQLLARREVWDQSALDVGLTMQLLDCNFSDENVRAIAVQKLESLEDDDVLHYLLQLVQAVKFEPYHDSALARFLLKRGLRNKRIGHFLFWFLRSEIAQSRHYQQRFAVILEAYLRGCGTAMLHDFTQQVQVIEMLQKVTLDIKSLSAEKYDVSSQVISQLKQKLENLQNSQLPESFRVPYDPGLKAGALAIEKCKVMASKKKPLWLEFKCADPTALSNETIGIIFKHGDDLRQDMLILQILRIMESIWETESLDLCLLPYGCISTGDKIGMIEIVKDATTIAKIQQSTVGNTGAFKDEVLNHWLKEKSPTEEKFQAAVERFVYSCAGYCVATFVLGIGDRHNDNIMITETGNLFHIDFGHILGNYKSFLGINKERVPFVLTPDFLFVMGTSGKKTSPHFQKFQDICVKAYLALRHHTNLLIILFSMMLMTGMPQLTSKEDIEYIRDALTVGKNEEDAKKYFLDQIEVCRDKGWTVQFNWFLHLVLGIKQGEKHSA
Description: PI3K (p120γ) (h) [Non-Radioactive Assay]
(§6) PI3K (p120γ) (h) is incubated in assay buffer containing 10 μM phosphatidylinositol-4,5-bisphosphate and MgATP (concentration as required). The reaction is initiated by the addition of the MgATP mix. After incubation for 30 minutes at room temperature, the reaction is stopped by the addition of stop solution containing EDTA and biotinylated phosphatidylinositol-3,4,5-trisphosphate. Finally, detection buffer is added, which contains europium-labelled anti-GST monoclonal antibody, GST-tagged GRP1 PH domain and streptavidin-allophycocyanin. The plate is then read in time-resolved fluorescence mode and the homogenous time-resolved fluorescence (HTRF) signal is determined according to the formula HTRF=10000×(Em665 nm/Em620 nm).
(§7) The kinase assays described herein were performed at Millipore UK Ltd, Dundee Technology Park, Dundee DD2 1SW, UK.

PI3K p110β/p85α (h) = molecular target: T2, PI3K p110β/p85α (h) (Homo sapiens, UniProt P42338); test: PI3K p110β/p85α (h) non-radioactive (HTRF) assay; type: biochemical
T2 construct: purchased Millipore UK Ltd (assays run there as a service)
T2 sequence (P42338 whole entry): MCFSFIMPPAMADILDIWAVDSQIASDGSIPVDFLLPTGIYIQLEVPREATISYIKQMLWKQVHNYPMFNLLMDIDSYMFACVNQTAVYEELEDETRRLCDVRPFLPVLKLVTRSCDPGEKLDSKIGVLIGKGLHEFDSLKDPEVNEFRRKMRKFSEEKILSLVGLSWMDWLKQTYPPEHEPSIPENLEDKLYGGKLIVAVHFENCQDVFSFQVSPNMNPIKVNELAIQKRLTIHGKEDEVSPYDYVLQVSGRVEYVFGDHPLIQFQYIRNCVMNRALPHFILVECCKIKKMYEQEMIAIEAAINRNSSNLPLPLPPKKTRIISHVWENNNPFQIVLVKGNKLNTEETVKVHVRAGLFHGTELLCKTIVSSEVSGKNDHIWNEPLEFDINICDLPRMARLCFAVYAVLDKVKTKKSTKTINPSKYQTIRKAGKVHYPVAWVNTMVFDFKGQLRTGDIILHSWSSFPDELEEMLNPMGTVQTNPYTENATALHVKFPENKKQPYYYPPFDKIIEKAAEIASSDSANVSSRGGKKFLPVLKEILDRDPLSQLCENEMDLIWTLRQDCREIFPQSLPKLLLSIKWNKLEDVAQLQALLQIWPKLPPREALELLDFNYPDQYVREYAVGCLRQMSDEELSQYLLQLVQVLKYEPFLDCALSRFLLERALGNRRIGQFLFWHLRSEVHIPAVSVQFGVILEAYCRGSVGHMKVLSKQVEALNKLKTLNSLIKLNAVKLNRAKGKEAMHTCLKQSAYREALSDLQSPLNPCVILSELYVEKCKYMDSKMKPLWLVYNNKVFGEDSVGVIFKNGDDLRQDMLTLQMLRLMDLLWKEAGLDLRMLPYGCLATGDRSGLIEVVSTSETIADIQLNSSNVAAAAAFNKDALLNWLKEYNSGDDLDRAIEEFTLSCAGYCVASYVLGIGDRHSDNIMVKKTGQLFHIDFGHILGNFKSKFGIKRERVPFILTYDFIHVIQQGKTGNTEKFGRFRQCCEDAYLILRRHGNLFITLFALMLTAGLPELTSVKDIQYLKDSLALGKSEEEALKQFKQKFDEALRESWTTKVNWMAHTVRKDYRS
T2 sequence (P27986 whole entry partner): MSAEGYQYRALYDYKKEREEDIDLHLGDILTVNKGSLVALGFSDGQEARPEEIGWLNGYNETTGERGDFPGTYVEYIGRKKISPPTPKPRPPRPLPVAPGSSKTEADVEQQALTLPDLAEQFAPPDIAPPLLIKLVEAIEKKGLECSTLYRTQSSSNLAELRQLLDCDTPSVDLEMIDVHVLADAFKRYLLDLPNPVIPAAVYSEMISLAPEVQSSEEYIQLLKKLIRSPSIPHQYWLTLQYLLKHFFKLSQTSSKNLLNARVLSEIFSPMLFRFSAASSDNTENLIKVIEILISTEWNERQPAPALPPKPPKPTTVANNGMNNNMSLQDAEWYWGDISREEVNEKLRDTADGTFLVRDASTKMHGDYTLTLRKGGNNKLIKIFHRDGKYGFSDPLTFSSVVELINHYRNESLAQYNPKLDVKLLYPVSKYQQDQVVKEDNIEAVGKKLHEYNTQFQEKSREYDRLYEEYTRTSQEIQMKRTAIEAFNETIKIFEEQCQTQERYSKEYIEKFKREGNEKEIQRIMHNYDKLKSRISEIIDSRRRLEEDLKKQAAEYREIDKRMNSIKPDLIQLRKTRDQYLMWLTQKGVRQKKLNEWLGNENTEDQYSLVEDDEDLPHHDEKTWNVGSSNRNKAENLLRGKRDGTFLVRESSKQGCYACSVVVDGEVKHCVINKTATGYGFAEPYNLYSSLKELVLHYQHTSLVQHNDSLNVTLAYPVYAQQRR
Description: PI3K p110β/p85α (h) [Non-Radioactive Assay]
as §6, with “(p110β/p85α)” for “(p120γ)”
as §7

PI3K p110α/p85α (h) = molecular target: T3, PI3K p110α/p85α (h) (Homo sapiens, UniProt P42336); test: PI3K p110α/p85α (h) non-radioactive (HTRF) assay; type: biochemical
T3 construct: purchased Millipore UK Ltd (assays run there as a service)
T3 sequence (P42336 whole entry): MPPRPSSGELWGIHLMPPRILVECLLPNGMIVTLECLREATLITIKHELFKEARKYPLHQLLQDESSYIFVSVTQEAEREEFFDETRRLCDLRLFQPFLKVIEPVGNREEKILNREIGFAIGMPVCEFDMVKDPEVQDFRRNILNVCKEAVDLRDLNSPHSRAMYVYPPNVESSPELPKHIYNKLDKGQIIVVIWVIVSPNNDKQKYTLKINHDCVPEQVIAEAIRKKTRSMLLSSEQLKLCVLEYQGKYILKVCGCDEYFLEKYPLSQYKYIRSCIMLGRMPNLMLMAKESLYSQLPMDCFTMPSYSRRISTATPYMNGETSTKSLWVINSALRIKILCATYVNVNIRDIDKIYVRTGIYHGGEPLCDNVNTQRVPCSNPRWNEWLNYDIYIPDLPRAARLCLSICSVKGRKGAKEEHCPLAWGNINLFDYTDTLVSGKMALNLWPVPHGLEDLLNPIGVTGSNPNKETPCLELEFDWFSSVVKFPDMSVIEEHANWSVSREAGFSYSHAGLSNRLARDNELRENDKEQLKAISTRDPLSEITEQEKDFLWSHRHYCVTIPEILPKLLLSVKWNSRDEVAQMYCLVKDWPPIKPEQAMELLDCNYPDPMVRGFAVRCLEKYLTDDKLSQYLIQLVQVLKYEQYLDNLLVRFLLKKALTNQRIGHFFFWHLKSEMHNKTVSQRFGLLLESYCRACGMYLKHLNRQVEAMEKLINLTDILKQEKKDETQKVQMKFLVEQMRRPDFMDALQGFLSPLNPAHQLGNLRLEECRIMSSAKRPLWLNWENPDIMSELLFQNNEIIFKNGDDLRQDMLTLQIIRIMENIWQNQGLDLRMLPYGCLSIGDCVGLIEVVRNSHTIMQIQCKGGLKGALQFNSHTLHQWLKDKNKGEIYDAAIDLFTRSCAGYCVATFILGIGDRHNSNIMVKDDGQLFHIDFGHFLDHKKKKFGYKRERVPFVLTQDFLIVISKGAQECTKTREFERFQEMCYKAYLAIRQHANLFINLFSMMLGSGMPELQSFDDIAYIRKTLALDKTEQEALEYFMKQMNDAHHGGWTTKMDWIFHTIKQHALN
T3 sequence (P27986 whole entry partner): as the sequence (P27986 whole entry partner) above
Description: PI3K p110α/p85α (h) [Non-Radioactive Assay]
as §6, with “p110α/p85α” for “(p120γ)”, “phosphatidylinositol 4,5-bisphosphate” for “phosphatidylinositol-4,5-bisphosphate”, “ATP solution.” for “MgATP mix.”, “streptavidin allophycocyanin.” for “streptavidin-allophycocyanin.”
as §7

PI3K (p110δ/p85α) (h) = molecular target: T4, PI3K (p110δ/p85α) (h) (Homo sapiens, UniProt O00329); test: PI3K (p110δ/p85α) (h) non-radioactive (HTRF) assay; type: biochemical
T4 construct: purchased Millipore UK Ltd (assays run there as a service)
T4 sequence (O00329 whole entry): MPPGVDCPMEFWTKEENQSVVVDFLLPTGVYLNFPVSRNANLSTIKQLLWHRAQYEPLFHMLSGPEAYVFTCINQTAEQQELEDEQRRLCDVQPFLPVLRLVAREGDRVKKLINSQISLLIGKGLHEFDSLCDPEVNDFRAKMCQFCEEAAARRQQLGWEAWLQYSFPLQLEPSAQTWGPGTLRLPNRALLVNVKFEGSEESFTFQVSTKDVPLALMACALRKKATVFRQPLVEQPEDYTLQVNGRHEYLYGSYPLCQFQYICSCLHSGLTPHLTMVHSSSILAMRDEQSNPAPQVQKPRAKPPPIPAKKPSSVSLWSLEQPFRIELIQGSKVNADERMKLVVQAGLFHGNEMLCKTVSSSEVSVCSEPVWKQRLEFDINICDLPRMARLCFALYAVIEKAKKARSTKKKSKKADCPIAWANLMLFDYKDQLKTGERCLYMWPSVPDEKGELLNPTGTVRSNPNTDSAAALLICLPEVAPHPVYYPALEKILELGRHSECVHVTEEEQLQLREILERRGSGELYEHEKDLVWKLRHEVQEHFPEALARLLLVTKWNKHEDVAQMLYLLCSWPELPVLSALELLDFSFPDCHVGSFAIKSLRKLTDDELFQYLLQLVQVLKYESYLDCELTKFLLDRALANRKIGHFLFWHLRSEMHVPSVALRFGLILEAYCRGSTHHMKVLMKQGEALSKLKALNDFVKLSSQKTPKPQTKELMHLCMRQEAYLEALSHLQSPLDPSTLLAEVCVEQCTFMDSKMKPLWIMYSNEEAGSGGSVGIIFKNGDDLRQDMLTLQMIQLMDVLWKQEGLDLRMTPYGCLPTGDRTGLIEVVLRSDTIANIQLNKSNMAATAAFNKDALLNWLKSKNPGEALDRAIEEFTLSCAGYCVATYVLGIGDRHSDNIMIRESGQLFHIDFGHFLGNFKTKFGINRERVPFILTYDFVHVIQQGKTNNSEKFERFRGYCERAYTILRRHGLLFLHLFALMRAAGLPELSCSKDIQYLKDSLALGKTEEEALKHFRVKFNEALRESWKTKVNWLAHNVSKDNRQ
T4 sequence (P27986 whole entry partner): as the sequence (P27986 whole entry partner) above
Description: PI3K (p110δ/p85α) (h) [Non-Radioactive Assay]
as §6, with “(p110δ/p85α)” for “(p120γ)”
as §7

mTOR (h) = molecular target: T5, mTOR (h) (Homo sapiens, UniProt P42345); test: mTOR (h) kinase assay; type: biochemical
T5 construct: purchased Millipore UK Ltd (assays run there as a service)
Description: mTOR (h) is incubated with 50 mM HEPES pH 7.5, 1 mM EDTA, 0.01% TWEEN®20, 2 mg/mL substrate, 3 mM Manganese Chloride and [γ-^33P-ATP] (specific activity approx. 500 cpm/pmol, concentration as required). The reaction is initiated by the addition of the MnATP mix. After incubation for 40 minutes at room temperature, the reaction is stopped by the addition of 3% phosphoric acid solution. Aliquote of the reaction (10 μL) is then spotted onto a P30 filtermat and washed three times for 5 minutes in 75 mM phosphoric acid and once in methanol prior to drying and scintillation counting.
as §7

[4] = human liver microsomes 0.5 mg protein/mL, compound 5 μM, NADPH, 37° C.

Row | SMILES | F ([1]; iv dose 1 mg/kg) | Cl/F ([1]; 1 mg/kg) | AUC(0-t) ([1]; 1 mg/kg) | half-life ([1]; 1 mg/kg) | Vd ([1]; 1 mg/kg) | T1/2 [3] | half-life at 5 μM [2, 4] | CLint scaled at 5 μM [2] | half-life at 5 μM [3] | CLint scaled at 5 μM [3] | also measured
1 | COc1ncc(-c2ccn3ncc(C#CC(C)(C)O)c3n2)cc1NS(=O)(=O)c1ccc(F)cc1F [Ex. 6, 2,4-difluoro-N-(5-(3-(3-hydroxy-3-methylbut-1-yn-1-yl)pyrazolo[1,5-a]pyrimidin-5-yl)-2-methoxypyridin-3-yl)benzenesulfonamide] | 50.80% | 0.33 mL/min/kg | 40900 ng·h/mL | 11 h | 0.24 L/kg | ∞ | – | – | – | – | T1/2 [2, 4]: ∞
2 | COc1ncc(-c2ccn3ncc(C#N)c3c2)cc1NS(=O)(=O)CC(F)(F)F [Ex. 10, N-(5-(3-cyanopyrazolo[1,5-a]pyridin-5-yl)-2-methoxypyridin-3-yl)-2,2,2-trifluoroethanesulfonamide] | 112.95% | 12.7 mL/min/kg | 1240 ng·h/mL | 2.74 h | 1.72 L/kg | ∞ | 20.4 h | 2.03 mL/min/kg | – | – | –
3 | COc1ncc(-c2ccn3ncc(C#CC(C)O)c3n2)cc1NS(=O)(=O)c1ccc(F)cc1F (centres unmarked) [Ex. 5, 2,4-difluoro-N-(5-(3-(3-hydroxybut-1-yn-1-yl)pyrazolo[1,5-a]pyrimidin-5-yl)-2-methoxypyridin-3-yl)benzenesulfonamide] | – | – | – | – | – | – | 5.05 h | 5.74 mL/min/kg | 3.61 h | 11.5 mL/min/kg | F ([1]; iv dose 2 mg/kg): 96.20%; Cl/F ([1]; 2 mg/kg): 0.83 mL/min/kg; AUC(0-t) ([1]; 2 mg/kg): 35200 ng·h/mL; half-life ([1]; 2 mg/kg): 3 h; Vd ([1]; 2 mg/kg): 0.2 L/kg; IC50 (PI3K (p120γ) (h)): 6 nM; IC50 (PI3K p110β/p85α (h)): 75 nM; IC50 (PI3K p110α/p85α (h)): 3 nM; IC50 (PI3K (p110δ/p85α) (h)): 1 nM; IC50 (mTOR (h)): 7 nM
4 | CC#Cc1cnn2ccc(-c3cnc(OC)c(NS(=O)(=O)c4ccc(F)cc4F)c3)nc12 [Ex. 7, 2,4-difluoro-N-(2-methoxy-5-(3-(prop-1-yn-1-yl)pyrazolo[1,5-a]pyrimidin-5-yl)pyridin-3-yl)benzenesulfonamide] | 80.10% | 3.17 mL/min/kg | 5330 ng·h/mL | 3.94 h | 0.63 L/kg | – | 55.7 h | 0.52 mL/min/kg | 1.54 h | 26.9 mL/min/kg | –
5 | COc1ncc(-c2ccn3ncc(C#CC(C)(C)O)c3c2)cc1NS(=O)(=O)c1ccc(F)cc1F [Ex. 8, 2,4-difluoro-N-(5-(3-(3-hydroxy-3-methylbut-1-yn-1-yl)pyrazolo[1,5-a]pyridin-5-yl)-2-methoxypyridin-3-yl)benzenesulfonamide] | 103.40% | 0.33 mL/min/kg | 41800 ng·h/mL | 10.8 h | 0.28 L/kg | – | 130 h | 0.22 mL/min/kg | 21 h | 1.97 mL/min/kg | –
